The values that follow come from PubChem BioAssay AID743102 (Vanderbilt Specialized Chemistry Center, 2013).

Structures are written as SMILES. Activity calls are given as the source filed them.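 Rule for the calls: active = human M5 calcium response above 60% of the acetylcholine maximum, marking a potentiator (some results past the limit were not filed as active); inactive = the rest.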

This experiment addresses Muscarinic acetylcholine receptor M5 (Homo sapiens) (UniProt P08912). Put plainly: M5 positive allosteric modulator potency, confirmation, cell-based, CHO-K1 hM5, Fluo-4 calcium flux, concentration-response (AID 743102). To be noted: ACh EC20 PAM; for % ACh max response: at 30 µM (top of the series); for % ACh max: active compounds read high. (Calcium assays in cells follow changes in intracellular calcium, usually with a dye or a luminescent sensor.)

Muscarinic acetylcholine receptor M5 (Homo sapiens), sequence (P08912 whole entry, looked up): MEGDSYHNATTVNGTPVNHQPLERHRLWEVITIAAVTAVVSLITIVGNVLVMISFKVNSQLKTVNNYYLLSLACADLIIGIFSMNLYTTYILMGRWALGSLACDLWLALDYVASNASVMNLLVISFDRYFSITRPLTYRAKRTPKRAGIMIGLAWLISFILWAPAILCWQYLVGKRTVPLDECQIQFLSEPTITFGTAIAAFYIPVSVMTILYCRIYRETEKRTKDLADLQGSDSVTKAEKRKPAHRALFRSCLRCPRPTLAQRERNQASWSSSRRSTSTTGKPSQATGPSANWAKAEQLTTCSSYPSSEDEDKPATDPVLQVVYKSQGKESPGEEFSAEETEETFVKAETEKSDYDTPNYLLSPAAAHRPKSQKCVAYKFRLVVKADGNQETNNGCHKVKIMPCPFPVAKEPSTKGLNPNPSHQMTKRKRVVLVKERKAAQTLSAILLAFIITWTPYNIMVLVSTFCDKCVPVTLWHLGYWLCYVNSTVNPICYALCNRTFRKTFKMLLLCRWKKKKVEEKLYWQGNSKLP

Turning to `CCN(Cc1ccccc1C(F)(F)F)C(=O)C1CN(S(=O)(=O)c2ccc3[nH]ncc3c2)C1`, the “% ACh max response” value is “inactive”.

The EC50 is the concentration that produces a half-maximal response. As to `CCN(Cc1ccccc1C)C(=O)C1CCN(S(=O)(=O)c2ccc3cn[nH]c3c2)CC1`, the EC50 was 940 nM. Consider `CCN(Cc1cccc(C#N)c1)C(=O)C1CCN(S(=O)(=O)c2ccc3cn[nH]c3c2)CC1`, for which the “% ACh max” value is “inactive”.

With `COc1ccc(S(=O)(=O)N2CCC(C(=O)NCc3ccccc3)CC2)cc1`, the “% ACh max response” value was “inactive”. Turning to `O=C(C1CCN(S(=O)(=O)c2ccc3cn[nH]c3c2)CC1)N(Cc1ccccc1C(F)(F)F)C1CC1`, the “% ACh max response” value was “inactive”. As to `CCN(Cc1cccc(C(F)(F)F)c1)C(=O)C1CCN(S(=O)(=O)c2ccc3cn[nH]c3c2)CC1`, the “% ACh max” value was “inactive”.

In the case of `CCN(Cc1ccccc1)C(=O)C1CCN(S(=O)(=O)c2ccc(OC)c(OC)c2)CC1`, the “% ACh max” value was “inactive”. `CCN(Cc1ccccc1Cl)C(=O)C1CCN(S(=O)(=O)c2ccc3[nH]ncc3c2)CC1`: the EC50 is 340 nM.

As for `O=C(C1CCN(S(=O)(=O)c2ccc3[nH]ncc3c2)CC1)N(Cc1ccccc1C(F)(F)F)C1CC1`, the “% ACh max response” value is “inactive”. On the same count and under the same terms, then `CCN(C(=O)Cc1ccccc1)C1CCN(S(=O)(=O)c2ccc(OC)cc2)CC1`, with “inactive”; and `CCN(Cc1ccccc1)C(=O)[C@H]1CCCN(S(=O)(=O)c2ccc(OC)cc2)C1`, with “inactive”.

Take `CCN(Cc1ccccc1Cl)C(=O)C1CCN(S(=O)(=O)c2ccc3cn[nH]c3c2)CC1`: the EC50 was 430 nM. On to `CCN(C(=O)C1CCN(S(=O)(=O)c2cc(F)c(F)c(F)c2)CC1)[C@H](C)c1ccccc1`, for which the EC50 was 2540 nM. The same measure, in the same setting: then `CCN(C(=O)C1CCN(S(=O)(=O)c2ccc3[nH]ncc3c2)CC1)[C@H](C)c1ccccc1C(F)(F)F`, with 4060 nM; and `CCN(Cc1ccccc1)C(=O)C1CCN(S(=O)(=O)c2ccc(OC)cc2)CC1`, with 3570 nM. Turning to `C[C@@H](NC(=O)C1CCN(S(=O)(=O)c2ccc3[nH]ncc3c2)CC1)c1ccccc1`, the “% ACh max response” value is “inactive”. Turning to `COc1ccc(S(=O)(=O)N2CCC(C(=O)N(C)Cc3ccccc3)CC2)cc1`, the “% ACh max” value was “inactive”. As to `CCN(C(=O)C1CCN(S(=O)(=O)c2ccc3cn[nH]c3c2)CC1)[C@H](C)c1ccccc1`, the EC50 is 830 nM.

Consider `CCCN(Cc1ccccc1C(F)(F)F)C(=O)C1CCN(S(=O)(=O)c2ccc3[nH]ncc3c2)CC1`, for which the EC50 was 160 nM. For the compound `CCN(C(=O)C1CCN(S(=O)(=O)c2ccc3occc3c2)CC1)[C@H](C)c1ccccc1C(F)(F)F`, the “% ACh max response” value is “inactive”. For `CCN(Cc1ccccc1)C(=O)C1CCN(S(=O)(=O)c2cccc(Cl)c2)CC1`, the 50% effective concentration (EC50) was 4810 nM.

Consider `[2H]C([2H])(C)N(C(=O)C1CCN(S(=O)(=O)c2ccc3cn[nH]c3c2)CC1)[C@H](C)c1ccccc1`, for which the EC50 was 530 nM. The same measure, in the same setting: then `CCN(Cc1cccc(OC)c1)C(=O)C1CCN(S(=O)(=O)c2ccc3cn[nH]c3c2)CC1`, with 2690 nM. As to `O=C(C1CCN(S(=O)(=O)c2ccc3c(c2)OCCO3)CC1)N1CCc2ccccc2C1`, the “% ACh max response” value was “inactive”. As to `CCN(Cc1ccccc1)C(=O)C1CCN(S(=O)(=O)c2ccc(C)s2)CC1`, the EC50 was 7480 nM. As for `CCN(Cc1ccccc1)C(=O)C1CCN(S(=O)(=O)c2ccc3ncccc3c2)CC1`, the “% ACh max” value is “inactive”.

In the case of `CCN(Cc1ccccc1)C(=O)C1CCN(S(=O)(=O)c2ccc(OC(F)F)cc2)CC1`, the concentration giving a half-maximal response (EC50) was 5050 nM. On to `CCN(Cc1ccccc1)C(=O)C1CCN(S(C)(=O)=O)CC1`, for which the “% ACh max response” value is “inactive”. `CCN(C(=O)Cc1ccccc1)C1CCN(S(=O)(=O)c2ccc3c(c2)OCCO3)CC1`: the “% ACh max response” value is “inactive”. On to `CCN(Cc1ccccn1)C(=O)C1CCN(S(=O)(=O)c2ccc3cn[nH]c3c2)CC1`, for which the “% ACh max” value was “inactive”. For the compound `CCN(Cc1ccccc1C(F)(F)F)C(=O)C1CCN(S(=O)(=O)c2ccc3[nH]ncc3c2)CC1`, the EC50 was 230 nM. Take `CCN(Cc1ccccc1)C(=O)C1CCN(S(=O)(=O)c2ccc(OC(F)(F)F)cc2)CC1`: the EC50 is 6100 nM. As to `CCCc1ccc(S(=O)(=O)N2CCC(C(=O)N(CC)Cc3ccccc3)CC2)cc1`, the EC50 is 3230 nM. Take `CCN(C(=O)C1CCN(S(=O)(=O)c2ccc3occc3c2)CC1)[C@H](C)c1ccccc1`: the EC50 was 920 nM.

Regarding `CCN(Cc1ccccc1)C(=O)C1CCN(S(=O)(=O)c2ccc3[nH]ncc3c2)CC1`, the EC50 is 1660 nM. In the case of `CCc1ccc(S(=O)(=O)N2CCC(C(=O)N(CC)Cc3ccccc3)CC2)cc1`, the EC50 was 3750 nM. Regarding `O=C(NCc1ccccc1)C1CCN(S(=O)(=O)c2ccc3c(c2)OCCO3)CC1`, the “% ACh max response” value is “inactive”. Regarding `CCN(Cc1ccccc1C#N)C(=O)C1CCN(S(=O)(=O)c2ccc3cn[nH]c3c2)CC1`, the EC50 is 7020 nM. For `CCN(Cc1ccccc1)C(=O)C1CCN(S(=O)(=O)c2ccc(C(C)=O)cc2)CC1`, the EC50 was 6550 nM. Regarding `CCN(C(=O)C1CCN(S(=O)(=O)c2ccc3c(c2)CCC3)CC1)[C@H](C)c1ccccc1`, the EC50 was 760 nM. On to `CCN(Cc1cccc(F)c1)C(=O)C1CCN(S(=O)(=O)c2ccc3cn[nH]c3c2)CC1`, for which the EC50 was 1270 nM. For `CCN(Cc1ccccc1)C(=O)[C@@H]1CCCN(S(=O)(=O)c2ccc(OC)cc2)C1`, the “% ACh max response” value was “inactive”. On to `CCN(Cc1cccc(C)c1)C(=O)C1CCN(S(=O)(=O)c2ccc3cn[nH]c3c2)CC1`, for which the EC50 is 1000 nM. As for `CCN(Cc1ccccc1)C(=O)C1CCN(S(=O)(=O)c2ccc(Br)cc2)CC1`, the EC50 was 3920 nM. Take `CCN(Cc1ccccc1)C(=O)C1CCN(S(=O)(=O)c2ccc(C)cc2)CC1`: the EC50 was 5450 nM.

On to `CCN(Cc1ccccc1C(F)(F)F)C(=O)C1(F)CCN(S(=O)(=O)c2ccc3[nH]ncc3c2)CC1`, for which the EC50 was 430 nM.

With `CCN(Cc1ccccc1OC)C(=O)C1CCN(S(=O)(=O)c2ccc3cn[nH]c3c2)CC1`, the EC50 was 7090 nM. In the case of `CCN(C(=O)C1CCN(S(=O)(=O)c2ccc(OC)cc2)CC1)[C@H](C)c1ccccc1`, the EC50 was 1080 nM. `CCN(C(=O)C1CCN(S(=O)(=O)c2ccc(-n3cccn3)cc2)CC1)[C@H](C)c1ccccc1`: the EC50 was 700 nM. For the compound `CCN(Cc1cccc(Cl)c1)C(=O)C1CCN(S(=O)(=O)c2ccc3cn[nH]c3c2)CC1`, the EC50 was 1670 nM. In the case of `CCN(Cc1ccccc1)C(=O)C1CCN(S(=O)(=O)c2cccc(OC)c2)CC1`, the EC50 was 3250 nM. In the case of `CC(C)N(Cc1ccccc1C(F)(F)F)C(=O)C1CCN(S(=O)(=O)c2ccc3[nH]ncc3c2)CC1`, the “% ACh max” value was “inactive”. Take `O=C(C1CCN(S(=O)(=O)c2ccc3[nH]ncc3c2)CC1)N(CCO)Cc1ccccc1C(F)(F)F`: the “% ACh max” value is “inactive”.

`COc1ccc(S(=O)(=O)N2CCC3(CCN(Cc4ccccc4)C3=O)CC2)cc1`: the “% ACh max response” value was “inactive”. As to `CCN(Cc1ccccc1)C(=O)C1CCN(S(=O)(=O)c2ccc3nsnc3c2)CC1`, the 50% effective concentration (EC50) was 5230 nM.

As for `O=C(C1CCN(S(=O)(=O)c2ccc3[nH]ncc3c2)CC1)N(CCF)Cc1ccccc1C(F)(F)F`, the EC50 is 1320 nM. In the case of `CCN(C(=O)C1CCN(S(=O)(=O)c2ccc3cn[nH]c3c2)CC1)C(C)c1ccccn1` (centres undefined), the “% ACh max” value was “inactive”.

Consider `CCN(Cc1ccccc1F)C(=O)C1CCN(S(=O)(=O)c2ccc3cn[nH]c3c2)CC1`, for which the EC50 is 2080 nM. Turning to `CCN(C(=O)C1CCN(S(=O)(=O)c2ccc(OC)cc2)CC1)[C@@H](C)c1ccccc1`, the “% ACh max response” value is “inactive”.

`CCN(Cc1ccccc1)C(=O)C1CCN(S(=O)(=O)c2cccc(OC(F)F)c2)CC1`: the EC50 was 3980 nM.

With `CCN(Cc1ccccc1C(F)(F)F)C(=O)C1CCN(S(=O)(=O)c2ccc3cn[nH]c3c2)CC1`, the EC50 was 420 nM. Turning to `CCN(C(=O)C1CCN(S(=O)(=O)c2ccc3[nH]ncc3c2)CC1)[C@H](C)c1ccccc1`, the EC50 is 770 nM. On the same count and under the same terms, then `C=CCN(Cc1ccccc1C(F)(F)F)C(=O)C1CCN(S(=O)(=O)c2ccc3[nH]ncc3c2)CC1`, with 1860 nM. `CCN(C(=O)C1CCN(S(=O)(=O)c2ccc3c(c2)CCO3)CC1)[C@H](C)c1ccccc1`: the EC50 was 980 nM.

Regarding `CCN(Cc1ccc(OC)cc1)C(=O)C1CCN(S(=O)(=O)c2ccc3cn[nH]c3c2)CC1`, the “% ACh max” value is “inactive”. For the compound `CCN(Cc1ccccc1)C(=O)C1CCN(S(=O)(=O)c2ccc3occc3c2)CC1`, the EC50 is 1400 nM. Regarding `CN(C)C(=O)C1(Cc2ccccc2)CCN(S(=O)(=O)c2ccc3occc3c2)CC1`, the “% ACh max response” value was “inactive”. `CCN(Cc1ccccc1)C(=O)C1CCN(S(=O)(=O)c2ccc3c(c2)OCCO3)CC1`: the EC50 was 12300 nM. On to `CCN(Cc1ccccc1C(F)(F)F)C(=O)C1C2CN(S(=O)(=O)c3ccc4[nH]ncc4c3)CC21` (centres undefined), for which the “% ACh max response” value was “inactive”. For the compound `CCN(Cc1ccccc1)C(=O)C1CCN(S(=O)(=O)c2cccc(C(F)(F)F)c2)CC1`, the “% ACh max” value is “inactive”.

Consider `CCN(Cc1ccccc1OC(F)(F)F)C(=O)C1CCN(S(=O)(=O)c2ccc3cn[nH]c3c2)CC1`, for which the EC50 is 3430 nM.

For the compound `CCN(Cc1ccccc1)C(=O)C1CCN(S(=O)(=O)c2ccc(C(F)(F)F)cc2)CC1`, the “% ACh max” value is “inactive”. Regarding `CCN(Cc1ccccc1C(F)(F)F)C(=O)C1CCN(S(=O)(=O)c2ccc(-n3cccn3)cc2)CC1`, the EC50 was 1260 nM. In the case of `O=C1N(Cc2ccccc2)CCC12CCN(S(=O)(=O)c1ccc3c(c1)OCCO3)CC2`, the “% ACh max response” value was “inactive”.

Take `CCN(Cc1ccccc1)C(=O)C1CCN(S(=O)(=O)c2cccc3c2OCCO3)CC1`: the “% ACh max” value is “inactive”. For `CCN(Cc1ccccc1)C(=O)C1CCN(S(=O)(=O)c2ccc3cn[nH]c3c2)CC1`, the concentration giving a half-maximal response (EC50) is 2090 nM. With `CCN(Cc1ccccc1)C(=O)C1CCN(S(=O)(=O)C2CC2)CC1`, the “% ACh max response” value was “inactive”. For `CCN(Cc1ccccc1)C(=O)C1CCN(S(=O)(=O)c2ccccc2)CC1`, the EC50 was 5370 nM.

For the compound `CCN(Cc1ccccc1)C(=O)C1CCN(S(=O)(=O)c2ccc(N3CCOCC3)nc2)CC1`, the “% ACh max” value is “inactive”.
